Reference: patent publication US8552023B2, “Non-amidic linkers with branched termini as CGRP receptor antagonists” (Merck Sharp & Dohme Corp., priority 2008, dated 2013)
pKi: −log10 of the molar value.

biological target: recombinant human CL receptor/RAMP1 (Homo sapiens (Human), UniProt O60894+Q16602); assay: Human CGRP receptor binding (recombinant receptor binding assay, 125I-hCGRP); conditions: read-out: Human CGRP receptor binding Ki
Method: RECOMBINANT RECEPTOR: Human CL receptor (Genbank accession number L76380) was subcloned into the expression vector pIREShyg2 (BD Biosciences Clontech) as a 5′NheI and 3′ PmeI fragment. Human RAMP1 (Genbank accession number AJ001014) was subcloned into the expression vector pIRESpuro2 (BD Biosciences Clontech) as a 5′NheI and 3′NotI fragment. HEK 293 cells (human embryonic kidney cells; ATCC #CRL-1573) were cultured in DMEM with 4.5 g/L glucose, 1 mM sodium pyruvate and 2 mM glutamine supplemented with 10% fetal bovine serum (FBS), 100 units/mL penicillin and 100 μg/mL streptomycin, and maintained at 37° C. and 95% humidity. Cells were subcultured by treatment with 0.25% trypsin with 0.1% EDTA in HBSS. Stable cell line generation was accomplished by co-transfecting 10 μg of DNA with 30 μg Lipofectamine 2000 (Invitrogen) in 75 cm^2 flasks. CL receptor and RAMP1 expression constructs were co-transfected in equal amounts. Twenty-four hours after transfection the cells were diluted and selective medium (growth medium+300 μg/mL hygromycin and 1 μg/mL puromycin) was added the following day. A clonal cell line was generated by single cell deposition utilizing a FACS Vantage SE (Becton Dickinson). Growth medium was adjusted to 150 μg/mL hygromycin and 0.5 μg/mL puromycin for cell propagation.
The cell suspension was disrupted with a laboratory homogenizer and centrifuged at 48,000 g to isolate membranes. The pellets were resuspended in harvest buffer plus 250 mM sucrose and stored at −70° C. For binding assays, 20 μg of membranes were incubated in 1 ml binding buffer (10 mM HEPES, pH 7.4, 5 mM MgCl2, and 0.2% BSA) for 3 hours at room temperature containing 10 pM ^125I-hCGRP (GE Healthcare) and antagonist. The assay was terminated by filtration through 96-well GFB glass fiber filter plates (PerkinElmer) that had been blocked with 0.05% polyethyleneimine. The filters were washed 3 times with ice-cold assay buffer (10 mM HEPES, pH 7.4 and 5 mM MgCl2). Scintillation fluid was added and the plates were counted on a Topcount (Packard). Non-specific binding was determined and the data analysis was carried out with the apparent dissociation constant (Ki) determined by using a non-linear least squares fitting the bound CPM data to the equation below: […]

Sequence of recombinant human CL receptor/RAMP1 (Q16602 23-461): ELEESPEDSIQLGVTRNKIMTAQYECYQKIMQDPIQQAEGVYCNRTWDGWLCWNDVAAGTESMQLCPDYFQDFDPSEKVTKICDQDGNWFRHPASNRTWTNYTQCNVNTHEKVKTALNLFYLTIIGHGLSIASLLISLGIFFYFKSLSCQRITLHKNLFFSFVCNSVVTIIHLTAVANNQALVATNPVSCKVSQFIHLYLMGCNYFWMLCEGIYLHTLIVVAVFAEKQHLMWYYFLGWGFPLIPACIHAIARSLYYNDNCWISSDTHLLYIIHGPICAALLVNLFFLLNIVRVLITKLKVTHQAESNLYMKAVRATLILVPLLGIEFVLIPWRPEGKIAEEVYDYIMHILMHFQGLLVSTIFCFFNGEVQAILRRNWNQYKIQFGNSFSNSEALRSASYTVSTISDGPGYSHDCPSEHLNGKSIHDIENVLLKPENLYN
Sequence of recombinant human CL receptor/RAMP1 (O60894 27-148): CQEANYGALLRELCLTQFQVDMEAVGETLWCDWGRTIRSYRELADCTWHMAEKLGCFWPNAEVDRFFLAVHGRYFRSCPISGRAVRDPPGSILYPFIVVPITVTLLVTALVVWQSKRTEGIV

| pKi | SMILES |
| --- | --- |
| 7.70 | CC(C)(C)C(=O)N(CC#Cc1ccc2c(c1)CC1(C2)C(=O)Nc2ncccc21)Cc1ccccc1 (centres unmarked) [Example 1, N-Benzyl-2,2-dimethyl-N-[3-(2′-oxo-1,1′,2′,3-tetrahydrospiro[indene-2,3′-pyrrolo[2,3-b]pyridin]-5-yl)prop-2-yn-1-yl]propanamide] |
| 7.35 | CC(C)(C)C(=O)N(CCCc1ccc2c(c1)CC1(C2)C(=O)Nc2ncccc21)Cc1ccccc1 (centres unmarked) [Example 2, N-benzyl-2,2-dimethyl-N-[3-(2′-oxo-1,1′,2′,3-tetrahydrospiro[indene-2,3′-pyrrolo[2,3-b]pyridin]-5-yl)propyl]propanamide] |
| 10.22 | CC(C)(CF)C(=O)N(C/C=C/c1cnc2c(c1)C[C@@]1(C2)C(=O)Nc2ncccc21)[C@@H]1CCc2ccccc21 [Example 3, N-[(1R)-2,3-dihydro-1H-inden-1-yl]-3-fluoro-2,2-dimethyl-N-{(2E)-3-[(6S)-2′-oxo-1′,2′,5,7-tetrahydrospiro[cyclopenta[b]pyridine-6,3′-pyrrolo[2,3-b]pyridin]-3-yl]prop-2-en-1-yl}propanamide] |

same assay, conditions: read-out: Ki

| pKi | SMILES |
| --- | --- |
| 10.19 | C[C@H](c1cc(F)cc(F)c1)N(C/C=C/c1cnc2c(c1)C[C@@]1(C2)C(=O)Nc2ncccc21)C(=O)C(C)(C)CCl [Example 6] |
| 10.39 | C[C@H](c1cc(F)cc(F)c1)N(C/C=C/c1cnc2c(c1)C[C@@]1(C2)C(=O)Nc2ncccc21)C(=O)C(C)(C)CF [Example 7] |
| 9.37 | C[C@H](c1cc(F)cc(F)c1)N(C/C=C/c1ccc2c(c1)C[C@@]1(C2)C(=O)NC(=O)N1C)C(=O)C(C)(C)C [Example 8] |
| 10.30 | C[C@H](c1cc(F)cc(F)c1)N(C/C=C/c1cnc2c(c1)C[C@@]1(C2)C(=O)Nc2ncccc21)C(=O)C1(C(F)(F)F)CC1 [Example 11] |
| 9.89 | Cc1ccc([C@@H](C)N(C/C=C/c2cnc3c(c2)C[C@@]2(C3)C(=O)Nc3ncccc32)C(=O)C(C)(C)C)cc1F [Example 13] |
